From patent US12622915B2, “Methods of treating PDE IV-mediated diseases or conditions” (Vanda Pharmaceuticals Inc., priority 2020, dated 2026)

Columns and labels:
Phosphodiesterase PDE4B1 = target: T1, Phosphodiesterase PDE4B1 (Homo sapiens, UniProt Q07343); assay: Phosphodiesterase PDE4B1 enzyme assay; type: biochemical
T1 construct: host or cells: insect Sf9 cells
Text: (§1) Reference standards are run as an integral part of each assay to ensure the validity of the results obtained. Reference Compounds: • Phosphodiesterase PDE10A2 Papaverine • Phosphodiesterase PDE11A4 Dipyridamole • Phosphodiesterase PDE1A MMPX • Phosphodiesterase PDE2A EHNA • Phosphodiesterase PDE3A Cilostamide • Phosphodiesterase PDE4A1A Rolipram • Phosphodiesterase PDE4B1 Rolipram • Phosphodiesterase PDE5A Zaprinast • Phosphodiesterase PDE6 Zaprinast • Phosphodiesterase PDE7A IBMX • Phosphodiesterase PDE7B IBMX • Phosphodiesterase PDE8A1 Dipyridamole • Phosphodiesterase PDE9A2 Zaprinast
PDE4 assays are performed using methods adapted from the literature. See Richter W, et al. (2001) Identification of inhibitor binding sites of the cAMP-specific phosphodiesterase 4. Cell Signal. 13(4): 287-297; Wang H, et al. (2005) Multiple elements jointly determine inhibitor selectivity of cyclic nucleotide phosphodiesterases 4 and 7. J Biol Chem. 280(35): 30949-30955.
Phosphodiesterase PDE4A1A; Phosphodiesterase PDE4B1; Phosphodiesterase PDE10A2; Phosphodiesterase PDE11A4; Phosphodiesterase PDE2A; Phosphodiesterase PDE3A; Phosphodiesterase PDE7A; Phosphodiesterase PDE7B; and Phosphodiesterase PDE8A1: • Source: Human recombinant insect Sf9 cells • Substrate: 0.10 μM FAM-cAMP • Vehicle: 1.00% DMSO • Significance Crit.: ≥50% of max stimulation or inhibition • Incubation Buffer: 10 mM Tris-HCl, pH 7.2, 10 mM MgCl2, 0.05% NaN3, 0.1% phosphate-free BSA • Quantitation Method: Quantitation of Fluorescein-AMP-IMAP • Pre-Incub. Time/Temp: 15 minutes @25° C. • Incubation Time/Temp: 30 minutes @25° C.
(§2) IC50 values are determined by a non-linear, least squares regression analysis using MathIQ™ (ID Business Solutions Ltd., UK). Where inhibition constants (Ki) are presented, the Ki values are calculated using the equation of Cheng and Prusoff (Cheng, Y., Prusoff, W. H., Biochem. Pharmacol. 22:3099-3108, 1973) using the observed IC50 of the tested compound, the concentration of radioligand employed in the assay, and the historical values for the KD of the ligand. Where presented, the Hill coefficient (nH), defining the slope of the competitive binding curve, is calculated using MathIQ™. […] Where IC50, Ki, and/or nH data are presented without Standard Error of the Mean (SEM), data are insufficient to be quantitative, and the values presented (Ki, IC50, nH) are interpreted with caution.
Reference standards are run as an integral part of each assay to ensure the validity of the results obtained. Rolipram is used for the PDE4 assays.
(§3) Phosphodiesterase PDE4B1: • Source: Human recombinant insect Sf9 cells • Substrate: 0.10 μM FAM-cAMP • Vehicle: 1.00% DMSO • Significance Crit.: ≥50% of max stimulation or inhibition • Incubation Buffer: 10 mM Tris-HCl, pH 7.2, 10 mM MgCl2, 0.05% NaN3, 0.1% phosphate-free BSA • Quantitation Method: Quantitation of Fluorescein-AMP-IMAP • Pre-Incub. Time/Temp: 15 minutes @25° C. • Incubation Time/Temp: 30 minutes @25° C.
as §2, with “W.H.,” for “W. H.,”

Phosphodiesterase PDE1A = target: T2, Phosphodiesterase PDE1A (Homo sapiens, UniProt P54750); assay: Phosphodiesterase PDE1A enzyme assay; type: biochemical; settings: N=2, Example 3
T2 construct: host or cells: insect Sf9 cells
Text: as §1
as §3, with “PDE1A; Phosphodiesterase PDE5A; and Phosphodiesterase PDE9A2:” for “PDE4B1:”, “Fluorescein-GMP-IMAP” for “Fluorescein-AMP-IMAP”
IC50 values are determined by a non-linear, least squares regression analysis using MathIQ™ (ID Business Solutions Ltd., UK). […] Where presented, the Hill coefficient (nH), defining the slope of the competitive binding curve, is calculated using MathIQ™. […]

T1 sequence (Q07343 whole entry): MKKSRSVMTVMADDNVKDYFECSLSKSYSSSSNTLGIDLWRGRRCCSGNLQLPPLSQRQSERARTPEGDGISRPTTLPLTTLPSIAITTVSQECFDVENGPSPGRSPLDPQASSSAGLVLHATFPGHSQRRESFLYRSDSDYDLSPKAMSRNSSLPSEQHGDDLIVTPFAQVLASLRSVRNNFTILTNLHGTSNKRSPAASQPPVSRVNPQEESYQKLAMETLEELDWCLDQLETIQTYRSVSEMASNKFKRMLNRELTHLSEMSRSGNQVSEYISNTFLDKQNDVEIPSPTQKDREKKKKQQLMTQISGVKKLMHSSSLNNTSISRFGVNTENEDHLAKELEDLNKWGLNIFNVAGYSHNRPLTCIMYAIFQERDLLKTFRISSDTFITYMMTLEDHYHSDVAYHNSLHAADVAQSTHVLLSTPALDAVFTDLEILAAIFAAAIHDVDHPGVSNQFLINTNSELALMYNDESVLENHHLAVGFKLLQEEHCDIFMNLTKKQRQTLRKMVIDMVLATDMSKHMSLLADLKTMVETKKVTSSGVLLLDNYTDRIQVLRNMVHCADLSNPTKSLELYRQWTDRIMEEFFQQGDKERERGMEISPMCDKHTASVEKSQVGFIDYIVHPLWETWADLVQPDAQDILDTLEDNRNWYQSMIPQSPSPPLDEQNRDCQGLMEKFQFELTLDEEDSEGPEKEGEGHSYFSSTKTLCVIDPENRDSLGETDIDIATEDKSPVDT
T2 sequence (P54750 whole entry): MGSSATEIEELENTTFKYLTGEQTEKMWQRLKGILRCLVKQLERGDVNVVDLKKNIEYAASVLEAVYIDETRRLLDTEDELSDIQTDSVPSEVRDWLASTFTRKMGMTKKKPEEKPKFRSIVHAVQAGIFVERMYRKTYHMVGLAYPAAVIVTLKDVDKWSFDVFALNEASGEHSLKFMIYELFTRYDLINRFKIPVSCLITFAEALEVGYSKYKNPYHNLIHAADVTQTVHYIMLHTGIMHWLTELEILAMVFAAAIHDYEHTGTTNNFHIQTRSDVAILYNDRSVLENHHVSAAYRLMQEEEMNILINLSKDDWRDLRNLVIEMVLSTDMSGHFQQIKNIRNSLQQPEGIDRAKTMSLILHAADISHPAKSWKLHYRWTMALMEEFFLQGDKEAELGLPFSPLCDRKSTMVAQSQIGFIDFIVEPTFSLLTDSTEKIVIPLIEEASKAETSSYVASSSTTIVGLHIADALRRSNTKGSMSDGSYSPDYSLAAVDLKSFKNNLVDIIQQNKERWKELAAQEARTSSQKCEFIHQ

inhibition at 0.01 µM (Phosphodiesterase PDE4B1; 10 nM, N=2, Example 4): 17%
inhibition at 0.03 µM (Phosphodiesterase PDE4B1; 0.03 μM, N=2, Example 4): 34%
inhibition at 0.1 µM (Phosphodiesterase PDE4B1; 0.1 μM, N=2, Example 4): 49%
inhibition at 0.3 µM (Phosphodiesterase PDE4B1; 0.3 μM, N=2, Example 4): 70%
inhibition at 1 µM (Phosphodiesterase PDE4B1; 1 μM, N=2, Example 4): 83%
inhibition at 3 µM (Phosphodiesterase PDE4B1; 3 μM, N=2, Example 4): 91%
inhibition at 10 µM (Phosphodiesterase PDE4B1; N=2, Example 3): 96%
inhibition at 10 µM (Phosphodiesterase PDE4B1; N=2, Example 4): 94%
IC50 (Phosphodiesterase PDE4B1; Example 4): 94 nM
inhibition at 10 µM (Phosphodiesterase PDE1A): -8%
SMILES: CNc1nc(Nc2ccccc2)nc(OCC(F)(F)C(F)F)n1 [compound of Formula (I), N^2-methyl-N^4-phenyl-6-(2,2,3,3-tetrafluoropropoxy)-1,3,5-triazine-2,4-diamine]
